Counter-ions that a name gives are not always drawn.
Legend:
[1] = biological target: Bruton's tyrosine kinase (BTK) (Homo sapiens (Human), UniProt Q06187); assay: BTK enzyme inhibition assay (Cisbio HTRF kit); type: biochemical; details: 30 minutes reaction, fluorescence 665 nm/620 nm
Description: BTK enzyme evaluation with each compound of examples of the invention was performed by using BTK enzyme inhibition diagnosis kit (Cisbio, Codolet, France). […] Then, EDTA (ethylenediaminetetraacetic acid) was added thereto in order to terminate the reaction. At this time, the EDTA solution contained curopium-containing antibody (antiphosphoresidue antibody) and straptavidin-XL665 (SA-XL665, Cisbio). After incubation for 1 hour, fluorescence was measured. The emission values of 665 nm and 620 nm excited at 337 nm were measured with Envision reader. IC50 values were determined using GraphPad prism (version 5). Herein, the curve indicates a nonlinear regression model, which was determined by logarithmic functions and reaction values.

TMD8 cells = assay: TMD8 cell growth inhibition (WST-1, 72 hours); type: cell-based; details: Homo sapiens, TMD8 ABC type DLBCL cell line, WST-1, absorbance 450 nm
Description: TDM-8 cells, the ABC (activated B-cell) type DLBCL (diffuse large B cell lymphoma) cell line sensitive to BTK signaling, were seeded in a 96-well plate at 30% confluency. Then, the compounds of the invention were treated thereto at different concentrations. 72 hours later, WST-1 reagent was added thereto. One hour later, absorbance was measured at 450 nm by using a spectramax spectrophotometer.

Chain of Bruton's tyrosine kinase (BTK) (Q06187 whole entry): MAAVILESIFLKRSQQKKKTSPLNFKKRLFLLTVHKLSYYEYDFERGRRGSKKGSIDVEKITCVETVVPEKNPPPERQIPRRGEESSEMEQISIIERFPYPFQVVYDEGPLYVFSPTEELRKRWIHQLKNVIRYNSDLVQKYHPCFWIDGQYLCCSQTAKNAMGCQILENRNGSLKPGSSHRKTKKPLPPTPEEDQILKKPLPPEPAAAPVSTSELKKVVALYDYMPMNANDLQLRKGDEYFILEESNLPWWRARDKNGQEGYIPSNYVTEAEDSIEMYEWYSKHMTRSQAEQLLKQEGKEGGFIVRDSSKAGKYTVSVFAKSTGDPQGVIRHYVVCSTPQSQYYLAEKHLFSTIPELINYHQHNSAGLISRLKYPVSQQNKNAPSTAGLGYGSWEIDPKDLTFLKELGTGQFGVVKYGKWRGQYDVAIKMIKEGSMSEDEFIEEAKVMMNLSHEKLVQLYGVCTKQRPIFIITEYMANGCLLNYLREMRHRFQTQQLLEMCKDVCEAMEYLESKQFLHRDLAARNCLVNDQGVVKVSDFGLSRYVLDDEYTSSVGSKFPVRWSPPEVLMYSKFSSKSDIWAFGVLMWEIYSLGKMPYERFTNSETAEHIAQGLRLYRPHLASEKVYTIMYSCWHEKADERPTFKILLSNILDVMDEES

Structure (SMILES) | IC50 [1] | IC50 (TMD8 cells)
Cc1cccc(C)c1Nc1nn(C2CCCCC2)c2nc(Nc3ccc4c(c3)CNCC4)ncc12 [Example 26, 1-cyclohexyl-N^3-(2,6-dimethylphenyl)-N^6 (1,2,3,4-tetrahydroisoquinoline-7-yl)-1H-pyrazolo[3,4-d]pyrimidine-3,6-diamine] | 2 nM | 64.9 nM
Cc1ccc(NC(=O)c2cccc(C(F)(F)F)c2)cc1Nc1nn(C)c2nc(Nc3ccc4c(c3)CNCC4)ncc12 [Example 28, N-(4-methyl-3-((1-methyl-6-((1,2,3,4-tetrahydroisoquinoline-7-yl)amino)-1H-pyrazolo[3,4-d]pyrimidine-3-yl)amino)phenyl)-3-(trifluoromethyl)benzamide] | 3 nM | 17.9 nM
Cc1ccc(NC(=O)c2cccc(C(F)(F)F)c2)c(C)c1Nc1nn(C)c2nc(Nc3ccc4c(c3)CNCC4)ncc12 [Example 29, N-(2,4-dimethyl-3-(1-methyl-6-(1,2,3,4-tetrahydroisoquinoline-7-ylamino)-1H-pyrazolo[3,4-d]pyrimidine-3-ylamino)phenyl)-3-(trifluoromethyl)benzamide] | 8 nM | 117 nM
Cc1cc(Oc2ccccc2)cc(C)c1Nc1nn(C)c2nc(Nc3ccc4c(c3)CNCC4)ncc12 [Example 33, N-(2,6-dimethyl-4-phenoxyphenyl)-1-methyl-N^6 (1,2,3,4-tetrahydroisoquinoline-7-yl)-1H-pyrazolo[3,4-d]pyrimidine-3,6-diamine] | 5 nM | 669 nM
Cc1cc(C(=O)Nc2ccccn2)cc(C)c1Nc1nn(C)c2nc(Nc3ccc4c(c3)CNCC4)ncc12 [Example 34, 3,5-dimethyl-4-(1-methyl-6-(1,2,3,4-tetrahydroisoquinoline-7-ylamino)-1H-pyrazolo[3,4-d]pyrimidine-3-ylamino)-N-(pyridine-2-yl)benzamide] | 15 nM | 178 nM
COc1cc(C)c(Nc2nn(C)c3nc(Nc4ccc5c(c4)CNCC5)ncc23)c(C)c1 [Example 35, N^3-(4-methoxy-2,6-dimethylphenyl)-1-methyl-N^6-(1,2,3,4-tetrahydroisoquinoline-7-yl)-1H-pyrazolo[3,4-d]pyrimidine-3,6-diamine] | 3 nM | 99.3 nM
CCc1cccc(CC)c1Nc1nn(C)c2nc(Nc3ccc4c(c3)CNCC4)ncc12 [Example 36, N^3-(2,6-diethylphenyl)-1-methyl-N^6-(1,2,3,4-tetrahydroisoquinoline-7-yl)-1H-pyrazolo[3,4-d]pyrimidine-3,6-diamine] | 44 nM | 968 nM
Cc1ccc(Nc2nn(C)c3nc(Nc4ccc5c(c4)CNCC5)ncc23)c(C)c1 [Example 39, N^3-(2,4-dimethylphenyl)-1-methyl-N^6 (1,2,3,4-tetrahydroisoquinoline-7-yl)-1H-pyrazolo[3,4-d]pyrimidine-3,6-diamine] | 2.8 nM | 292 nM
Cc1cc(F)cc(C)c1Nc1nn(C)c2nc(Nc3ccc4c(c3)CNCC4)ncc12 [Example 44, N^3-(4-fluoro-2,6-dimethylphenyl)-1-methyl-N^6-(1,2,3,4-tetrahydroisoquinoline-7-yl)-1H-pyrazolo[3,4-d]pyrimidine-3,6-diamine] | 1.7 nM | 69 nM
Cc1ccc(NC(=O)c2cccc(C(F)(F)F)c2)cc1Nc1nn(C)c2nc(Nc3ccc4c(c3)C(C)NCC4)ncc12 (stereo not shown) [Example 47, N-(4-methyl-3-(1-methyl-6-(1-methyl-1,2,3,4-tetrahydroisoquinoline-7-ylamino)-1H-pyrazolo[3,4-d]pyrimidine-3-ylamino)phenyl)-3-(trifluoromethyl)benzamide] | 5.42 nM | 13.8 nM
Cc1cccc(Cl)c1Nc1nn(C)c2nc(Nc3ccc4c(c3)CNCC4)ncc12 [Example 48, N^3-(2-chloro-6-methylphenyl)-1-methyl-N^6 (1,2,3,4-tetrahydroisoquinoline-7-yl)-1H-pyrazolo[3,4-d]pyrimidine-3,6-diamine] | 1.28 nM | 50.2 nM
Cc1cccc(C)c1Nc1nn(C)c2nc(Nc3ccc4c(c3)C(C(C)C)NCC4)ncc12 (stereo not shown) [Example 49, N^3-(2,6-dimethylphenyl)-N^6-(1-isopropyl-1,2,3,4-tetrahydroisoquinoline-7-yl)-1-methyl-1H-pyrazolo[3,4-d]pyrimidine-3,6-diamine] | 1.61 nM | 19.6 nM
Cc1cccc(C)c1Nc1nn(C)c2nc(Nc3ccc4c(c3)C(C)(C)NCC4)ncc12 [Example 58, N6-(1,1-dimethyl-1,2,3,4-tetrahydroisoquinolin-7-yl)-N 3-(2,6-dimethylphenyl)-1-methyl-1H-pyrazolo[3,4-d]pyrimidine-3,6-diamine] | 1.69 nM | 8.77 nM
Cc1cccc(C)c1Nc1nn(C)c2nc(Nc3ccc4c(c3)C(C)(C)N(C)CC4)ncc12 [Example 59, N3-(2,6-dimethylphenyl)-1-methyl-N 6-(1,1,2-trimethyl-1,2,3,4-tetrahydroisoquinoline-7-yl)-1H-pyrazolo[3,4-d]pyrimidine-3,6-diamine] | 1.84 nM | 9.27 nM
CC(=O)N1CCc2ccc(Nc3ncc4c(Nc5c(C)cccc5C)nn(C)c4n3)cc2C1(C)C [Example 60, 1-(7-((3-((2,6-dimethylphenyl)amino)-1-methyl-1H-pyrazolo[3,4-d]pyrimidine-6-yl)amino)-1,1-dimethyl-3,4-dihydroisoquinoline-2(1H)-yl)ethane-1-one] | 4.01 nM | 159 nM
Cc1cccc(C)c1Nc1nn(C)c2nc(Nc3ccc4c(c3)CN(C)CC4(C)C)ncc12 [Example 63, N3-(2,6-dimethylphenyl)-1-methyl-N 6-(2,4,4-trimethyl-1,2,3,4-tetrahydroisoquinoline-7-yl)-1H-pyrazolo[3,4-d]pyrimidine-3,6-diamine] | 2.13 nM | 20.9 nM

Now those with a lower IC50 [1], led by results:

IC50 [1] | Structure (SMILES) | IC50 (TMD8 cells)
0.3 nM | Cc1cccc(C)c1Nc1nn(C)c2nc(Nc3ccc4c(c3)CN(CCO)CC4)ncc12 [Example 24, 2-(7-((3-((2,6-dimethylphenyl)amino)-1-methyl-1H-pyrazolo[3,4-d]pyrimidine-6-yl)amino)-3,4-dihydroisoquinoline-2(1H)-yl)ethane-1-ol] | 40.1 nM
0.3 nM | Cc1cccc(C)c1Nc1nn(C2CCCC2)c2nc(Nc3ccc4c(c3)CNCC4)ncc12 [Example 25, 1-cyclopentyl-N^3-(2,6-dimethylphenyl)-N^6-(1,2,3,4-tetrahydroisoquinoline-7-yl)-1H-pyrazolo[3,4-d]pyrimidine-3,6-diamine] | 90.3 nM
0.8 nM | Cc1cccc(C)c1Nc1nn(C)c2nc(Nc3ccc4c(c3)CN(C(=O)CN(C)C)CC4)ncc12 [Example 31, 2-(dimethylamino)-1-(7-(3-(2,6-dimethylphenylamino)-1-methyl-1H-pyrazolo[3,4-d]pyrimidine-6-ylamino)-3,4-dihydroisoquinolin-2(1H)-yl)ethanone] | 64.2 nM
0.7 nM | CCN1CCc2ccc(Nc3ncc4c(Nc5c(C)cccc5C)nn(C)c4n3)cc2C1 [Example 32, N3-(2,6-dimethylphenyl)-N^6-(2-ethyl-1,2,3,4-tetrahydroisoquinoline-7-yl)-1-methyl-1H-pyrazolo[3,4-d]pyrimidine-3,6-diamine] | 37.9 nM
0.523 nM | Cc1cccc(C)c1Nc1nn(C)c2nc(Nc3ccc4c(c3)CNC(C)(C)C4)ncc12 [Example 53, N^6-(3,3-dimethyl-1,2,3,4-tetrahydroisoquinoline-7-yl)-N^3-(2,6-dimethylphenyl)-1-methyl-1H-pyrazolo[3,4-d]pyrimidine-3,6-diamine] | 31.9 nM
1.14 nM | Cc1cccc(C)c1Nc1nn(C2CCC(O)CC2)c2nc(Nc3ccc4c(c3)CNCC4)ncc12 (stereo not shown) [Example 54, 4-(3-((2,6-dimethylphenyl)amino)-6-((1,2,3,4-tetrahydroisoquinoline-7-yl)amino)-1H-pyrazolo[3,4-d]pyrimidine-1-yl)cyclohexane-1-ol] | 60.9 nM
0.847 nM | Cc1cccc(C)c1Nc1nn(C)c2nc(Nc3ccc4c(c3)C(C)NC(C)(C)C4)ncc12 (stereo not shown) [Example 55, N3-(2,6-dimethylphenyl)-1-methyl-N 6-(1,3,3-trimethyl-1,2,3,4-tetrahydroisoquinoline-7-yl)-1H-pyrazolo[3,4-d]pyrimidine-3,6-diamine] | 16.8 nM
0.745 nM | Cc1cccc(C)c1Nc1nn(C)c2nc(Nc3ccc4c(c3)CNC4)ncc12 [Example 56, N^3-(2,6-dimethylphenyl)-N^6-(isoindolin-5-yl)-1-methyl-1H-pyrazolo[3,4-d]pyrimidine-3,6-diamine hydrochloride] | 58.9 nM
1.03 nM | CC(=O)N1CCc2ccc(Nc3ncc4c(Nc5c(C)cccc5C)nn(C)c4n3)cc2C1C (stereo not shown) [Example 61, 1-(7-((3-((2,6-dimethylphenyl)amino)-1-methyl-1H-pyrazolo[3,4-d]pyrimidine-6-yl)amino)-1-methyl-3,4-dihydroisoquinoline-2(1H)-yl)ethane-1-one] | 96.4 nM
1.21 nM | Cc1cccc(C)c1Nc1nn(C)c2nc(Nc3ccc4c(c3)C(C)N(C)CC4)ncc12 (stereo not shown) [Example 62, N6-(1,2-dimethyl-1,2,3,4-tetrahydroisoquinoline-7-yl)-N 3-(2,6-dimethylphenyl)-1-methyl-1H-pyrazolo[3,4-d]pyrimidine-3,6-diamine] | 27.9 nM

Source: patent publication US11084824B2, “Pyrazolopyrimidine derivatives, preparation method thereof, and pharmaceutical composition for use in preventing or treating cancer, autoimmune disease and brain disease containing the same as an active ingredient” (Korea Research Institute of Chemical Technology, priority 2017, dated 2021)
